“Also recorded” adds a separate entry of the source.
Assays:
[1] = test system: replicons containing HCV NS3 protease mutations T54A, A156S, A156T, V170A; assay: HCV-796 cross-resistance study, 3-day replicon assay on replicons with NS3 protease resistance mutations; format: cell-based; details: V170A vs wild type
Description: Replicon cells are seeded at ˜5000 cells/well in 96-well collagen I-coated Biocoat plates (Becton Dickinson). Twenty-four hrs post-seeding, inhibitors diluted in DMSO are added to replicon cells (Huh-7 cells). The final concentrations of DMSO and fetal bovine serum are 1% and 10%, respectively. SCH 503034 is serially diluted at 1:2 for a 10-point titration. To each concentration of the SCH 503034, the second inhibitor, HCV-796 or rhIFN-α2b control is titrated in. IFN-α is serially diluted at 1:3, whereas HCV RNA polymerase inhibitor, HCV-796, is serially diluted at 1:2. […] All samples are tested in triplicate. Media and inhibitors are refreshed daily for 3 days at which point the cells are washed with PBS and lysed in 1× cell lysis buffer (Ambion cat #8721). The replicon RNA level is measured using real time PCR (Taqman assay) The amplicon is located in 5B. The PCR primers are: 5B.2F, ATGGACAGGCGCCCTGA (SEQ ID NO:1) and 5B.2R, […] (SEQ ID NO:2). The probe sequence is FAM-labeled CACGCCATGCGCTGCGG (SEQ ID NO:3). GAPDH RNA is used as an endogenous control and is amplified in the same reaction as NS5B (multiplex PCR) using primers and VIC-labeled probe recommended by the manufacturer (PE Applied Biosystem). […]

[2] = test system: replicon variants with reduced susceptibility to HCV-796, including C316Y; assay: Susceptibility of HCV-796 resistant replicons to SCH 503034; format: cell-based; details: 72 hours, vs wild-type replicon
Description: The antiviral activity of SCH 503034 against the replicon variants that have shown reduced susceptibility to HCV-796 is evaluated. Briefly, the replicon-containing cells are seeded in 96-well plates at a subconfluent density (7000 cells/well) in a medium containing 2% FBS without G418. SCH 503034 solubilized with 100% dimethylsulfoxide (DMSO) is prepared in a […], 2-fold dilution series, with a final DMSO concentration of 0.5% and a final volume of […]. The final concentrations for SCH 503034 are […], 6.3, 12.5, 25, 50, 100, 200, 400, 800, 1600 and 3200 nM. The plate is incubated for 72 hours at 37° C. and 5% CO2 before quantification of HCV and GAPDH RNAs.

SMILES | Activity of HCV-796 on SCH 503034 resistant replicon cell lines [1] | Activity of SCH 503034 on HCV-796 resistant replicons [2] | Activity of SCH 503034 on HCV-796 resistant replicons ([2]; listed as SCH-503034)
CNC(=O)c1c(-c2ccc(F)cc2)oc2cc(N(CCO)S(C)(=O)=O)c(C3CC3)cc12 [HCV-796, 5-cyclopropyl-2-(4-fluoro-phenyl)-6-[(2-hydroxy-ethyl)-methanesulfonyl-amino]-benzofuran-3-carboxylic acid methylamide] | identical to that observed against the wild-type replicon; also recorded: active |  | 
CC(C)(C)NC(=O)N[C@H](C(=O)N1C[C@H]2[C@@H]([C@H]1C(=O)NC(CC1CCC1)C(=O)C(N)=O)C2(C)C)C(C)(C)C (stereo partly drawn) [SCH 503034, (1R,5S)—N-[3-amino-1-(cyclobutylmethyl)-2,3-dioxopropyl]-3-[2(S)-[[[(1,1-dimethylethyl)amino]carbonyl]amino]-3,3-dimethyl-1-oxobutyl]-6,6-dimethyl-3-azabicyclo[3.1.0]hexan-2(S)-carboxamide] |  | active | equivalent inhibitory activity
